Test results from patent US10336702B2, “Pharmaceutically active compounds” (BERGENBIO ASA, priority 2015, dated 2019).

Experiments:
Assay type in all cases: biochemical
Akt3 = molecular target: T1, Akt3 (Homo sapiens, UniProt Q9Y243); test: Akt activation assay (PDK1-mediated activation, LANCE Ultra crosstide TR-FRET), Akt3; settings: read-out: Biological Assay 1 IC50 (nM) Akt3
T1 construct: unspecified tag, removed (detagged) (cleaved yes); purchased SignalChem and Proteros (Akt3); Merck Millipore (PDK1) 14-452 (PDK1); none given for Akt3
Protocol: (§1) Biological Assay 1: Akt Activation Assay
(§2) Addition of a Europium-labelled antibody specific to the phosphopeptide allows energy transfer from the Europium donor to the Ultra Ulight™ acceptor if close enough in proximity.
(§3) Full length active His6-tagged PDK1 was obtained from Merck Millipore (14-452).
(§4) 1× assay buffer (AB): 50 mM HEPES pH 7.5, 1 mM EGTA, 10 mM MgCl2, 0.01% Tween. Immediately before use, DTT to a concentration of 2 mM was added.
(§5) To prepare lipid vesicles: 1 mg/ml PtdIns(3,4,5)P3 solution (in 10 mM HEPES 7.5) was added to 16.7 mg/ml DOPS/DOPC mixture (in 10 mM HEPES pH 7.5) in a ratio of 1:8.3. MilliQ water was added to the solution to generate concentrations of 400 μM DOPS, 400 μM DOPC and 40 μM PtdIns(3,4,5)P3. The mixture was subjected to 5× freeze/thaw cycles and aliquots stored at −20° C.
(§6) 5 μL enzyme in 1×AB was incubated with 2.5 μL test compound. To start the reaction 2.5 μL reaction mix was added which consisted of PDK1, lipid preparations, crosstide and ATP in 1×AB. Final assay concentrations were as follows: 1% DMSO, 5 nM SignalChem Akt1/15 nM SignalChem Akt2/3 nM Signalchem Akt3/5 nM Proteros Akt1/5 nM proteros Akt2/5 nM Proteros Akt3, 5 nM PDK1, 5.5 μM DOPS, 5.5 μM DOPC, 0.55 μM PtdIns(3,4,5)P3, 100 μM ATP, 100 nM LANCE® Ultra Ulight™-Crosstide. After 30 min, the reaction was stopped using 5 μL 40 μM EDTA in 1× Detection buffer for 5 min. For detection, 5 μL 8 nM LANCE® Ultra Europium-anti-phospho-Crosstide antibody in 1× Detection buffer was added to each well and incubated for 1 h. Plates read with the EnVision® Multilabel Plate Reader, excitation at 320 nm and emission at 665 nm and 615 nm. Compound IC50 was determined using a 4-parameter equation.

Akt1 = molecular target: T2, Akt1 (Homo sapiens, UniProt P31749); test: Akt activation assay (PDK1-mediated activation, LANCE Ultra crosstide TR-FRET), Akt1; settings: read-out: Biological Assay 1 IC50 (nM) Akt1
T2 construct: unspecified tag, removed (detagged) (cleaved yes); purchased SignalChem and Proteros (Akt1); Merck Millipore (PDK1) 14-452 (PDK1); none given for Akt1
Protocol: as §1, §2, §3, §4, §5, §6

Akt2 = molecular target: T3, Akt2 (Homo sapiens, UniProt P31751); test: Akt activation assay (PDK1-mediated activation, LANCE Ultra crosstide TR-FRET), Akt2; settings: read-out: Biological Assay 1 IC50 (nM) Akt2
T3 construct: unspecified tag, removed (detagged) (cleaved yes); purchased SignalChem and Proteros (Akt2); Merck Millipore (PDK1) 14-452 (PDK1); none given for Akt2
Protocol: as §1, §2, §3, §4, §5, §6

T3 sequence (P31751 whole entry): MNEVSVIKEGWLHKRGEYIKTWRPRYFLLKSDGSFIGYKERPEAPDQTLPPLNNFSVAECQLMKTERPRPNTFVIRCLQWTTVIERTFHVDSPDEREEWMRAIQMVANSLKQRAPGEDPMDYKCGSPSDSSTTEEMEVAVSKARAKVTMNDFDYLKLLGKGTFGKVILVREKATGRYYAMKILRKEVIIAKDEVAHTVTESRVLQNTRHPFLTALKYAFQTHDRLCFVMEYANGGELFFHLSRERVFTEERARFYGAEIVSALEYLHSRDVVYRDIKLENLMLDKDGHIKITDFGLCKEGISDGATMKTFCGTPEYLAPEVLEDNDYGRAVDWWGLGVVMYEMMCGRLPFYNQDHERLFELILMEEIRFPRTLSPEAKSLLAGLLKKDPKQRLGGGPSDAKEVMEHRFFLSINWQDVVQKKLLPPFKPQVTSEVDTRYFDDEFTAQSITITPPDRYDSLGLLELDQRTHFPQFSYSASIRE
T2 sequence (P31749 whole entry): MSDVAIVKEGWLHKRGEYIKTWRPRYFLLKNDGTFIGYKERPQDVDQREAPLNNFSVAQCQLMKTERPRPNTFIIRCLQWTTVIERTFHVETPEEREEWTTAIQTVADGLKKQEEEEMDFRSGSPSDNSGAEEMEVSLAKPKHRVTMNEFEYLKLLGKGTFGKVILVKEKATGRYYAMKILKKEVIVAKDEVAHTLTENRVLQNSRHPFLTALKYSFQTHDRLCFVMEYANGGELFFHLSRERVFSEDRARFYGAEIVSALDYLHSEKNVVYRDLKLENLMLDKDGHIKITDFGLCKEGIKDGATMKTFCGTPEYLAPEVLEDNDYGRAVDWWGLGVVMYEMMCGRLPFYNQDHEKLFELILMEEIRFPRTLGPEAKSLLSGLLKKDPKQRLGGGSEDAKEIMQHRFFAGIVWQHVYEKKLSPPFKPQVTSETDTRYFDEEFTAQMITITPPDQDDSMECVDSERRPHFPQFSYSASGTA
T1 sequence (Q9Y243 whole entry): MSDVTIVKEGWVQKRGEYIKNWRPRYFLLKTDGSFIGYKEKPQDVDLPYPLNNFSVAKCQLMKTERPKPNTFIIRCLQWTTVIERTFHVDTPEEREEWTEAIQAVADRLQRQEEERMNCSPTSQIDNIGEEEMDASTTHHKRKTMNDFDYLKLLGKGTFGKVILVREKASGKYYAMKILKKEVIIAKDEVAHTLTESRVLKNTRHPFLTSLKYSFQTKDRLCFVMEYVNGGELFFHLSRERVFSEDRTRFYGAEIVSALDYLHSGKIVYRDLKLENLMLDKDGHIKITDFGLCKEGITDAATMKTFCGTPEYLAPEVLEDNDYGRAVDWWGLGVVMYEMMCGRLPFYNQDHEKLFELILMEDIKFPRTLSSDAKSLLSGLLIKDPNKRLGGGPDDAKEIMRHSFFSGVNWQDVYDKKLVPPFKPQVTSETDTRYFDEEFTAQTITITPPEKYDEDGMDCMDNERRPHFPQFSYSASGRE

| IC50 (Akt3) [nM] | IC50 (Akt1) [nM] | IC50 (Akt2) [nM] | SMILES |
| --- | --- | --- | --- |
| 55 | > 37000 | 4100 | CC1(C(=O)N[C@H]2CC[C@H](CC(=O)Nc3cnc(-c4ccc(C(C)(C)N)cc4)c(-c4ccccc4)c3)CC2)CC1 [Example A21, N-(trans-4-(2-((6-(4-(2-aminopropan-2-yl)phenyl)-5-phenylpyridin-3-yl)amino)-2-oxoethyl)cyclohexyl)-1-methylcyclopropane-1-carboxamide] |
| 1400 | > 30000 | 11000 | CN(C(=O)C1(C)CC1)[C@H]1CC[C@H](CC(=O)Nc2cnc(-c3ccc(C(C)(C)N)cc3)c(-c3ccccc3)c2)CC1 [Example A31, N-(trans-4-(2-((6-(4-(2-aminopropan-2-yl)phenyl)-5-phenylpyridin-3-yl)amino)-2-oxoethyl)cyclohexyl)-N,1-dimethylcyclopropane-1-carboxamide] |
| 300 | > 22000 | 520 | CC(C)(C)C(=O)N[C@H]1CC[C@H](CC(=O)Nc2cnc(-c3ccc(C4(N)CC4)cc3)c(-c3ccccc3)c2)CC1 [Example A43, N-(trans-4-(2-((6-(4-(1-aminocyclopropyl)phenyl)-5-phenylpyridin-3-yl)amino)-2-oxoethyl)cyclohexyl)pivalamide] |
| 280 | 6900 | 810 | NC1(c2ccc(-c3ncc(NC(=O)C[C@H]4CC[C@H](NC(=O)C(F)F)CC4)cc3-c3ccccc3)cc2)CC1 [Example A42, N-(trans-4-(2-((6-(4-(1-aminocyclopropyl)phenyl)-5-phenylpyridin-3-yl)amino)-2-oxoethyl)cyclohexyl)-2,2-difluoroacetamide] |
| 15 | 3100 | 140 | NC1(c2ccc(-c3ncc(NC(=O)C[C@H]4CC[C@H](NC(=O)C5CC5)CC4)cc3-c3ccccc3)cc2)CCC1 [Example A39, N-(trans-4-(2-((6-(4-(1-aminocyclobutyl)phenyl)-5-phenylpyridin-3-yl)amino)-2-oxoethyl)cyclohexyl)cyclopropane-carboxamide] |
| 630 | > 30000 | 9700 | CN(C(=O)CC1CC1)[C@H]1CC[C@H](CC(=O)Nc2cnc(-c3ccc(C(C)(C)N)cc3)c(-c3ccccc3)c2)CC1 [Example A32, N-(trans-4-(2-((6-(4-(2-aminopropan-2-yl)phenyl)-5-phenylpyridin-3-yl)amino)-2-oxoethyl)cyclohexyl)-2-cyclopropyl-N-methylacetamide] |
| 160 | > 30000 | – | CC(C)(C)C(=O)N[C@H]1CC[C@H](CC(=O)Nc2cnc(-c3ccc(C(C)(C)N)cc3)c(-c3ccccc3)c2)CC1 [Example A34, N-(trans-4-(2-((6-(4-(2-aminopropan-2-yl)phenyl)-5-phenylpyridin-3-yl)amino)-2-oxoethyl)cyclohexyl)pivalamide] |
| 880 | – | 1500 | C[C@@H](N)c1ccc(-c2ncc(NC(=O)C[C@H]3CC[C@H](NC(=O)C(C)(C)C(F)(F)F)CC3)cc2-c2ccccc2)cc1 [Example A11, N-(trans-4-(2-((6-(4-((R)-1-aminoethyl)phenyl)-5-phenylpyridin-3-yl)amino)-2-oxoethyl)cyclohexyl)-3,3,3-trifluoro-2,2-dimethylpropanamide] |
| 530 | > 30000 | 6900 | CC(=O)N[C@H]1CC[C@H](CC(=O)Nc2cnc(-c3ccc([C@H](C)N)cc3)c(-c3ccccc3)c2)CC1 [Example A8, 2-(trans-4-acetamidocyclohexyl)-N-(6-(4-((S)-1-aminoethyl)phenyl)-5-phenylpyridin-3-yl)acetamide] |
| 210 | 9800 | 260 | CN([C@H]1CC[C@H](CC(=O)Nc2cnc(-c3ccc(C4(N)CCC4)cc3)c(-c3ccccc3F)c2)CC1)S(C)(=O)=O [Example A16, N-(6-(4-(1-aminocyclobutyl)phenyl)-5-(2-fluorophenyl)pyridin-3-yl)-2-(trans-4-(N-methylmethylsulfonamido)cyclo-hexyl)acetamide] |
| 68 | > 30000 | 3500 | CC(C)C(=O)N[C@H]1CC[C@H](CC(=O)Nc2cnc(-c3ccc(C(C)(C)N)cc3)c(-c3ccccc3)c2)CC1 [Example A22, N-(trans-4-(2-((6-(4-(2-aminopropan-2-yl)phenyl)-5-phenylpyridin-3-yl)amino)-2-oxoethyl)cyclohexyl)isobutyramide] |
| 25 | > 27000 | 810 | CC(C)(C)C(=O)N[C@H]1CC[C@H](CC(=O)Nc2cnc(-c3ccc(C4(N)CCC4)cc3)c(-c3ccsc3)c2)CC1 [Example A40, N-(trans-4-(2-((6-(4-(1-aminocyclobutyl)phenyl)-5-(thiophen-3-yl)pyridin-3-yl)amino)-2-oxoethyl)cyclohexyl)pivalamide] |
| 80 | – | 400 | CC(=O)N[C@H]1CC[C@H](CC(=O)Nc2cnc(-c3ccc([C@@H](C)N)cc3)c(-c3ccccc3)c2)CC1 [Example A9, 2-(trans-4-acetamidocyclohexyl)-N-(6-(4-((R)-1-aminoethyl)phenyl)-5-phenylpyridin-3-yl)acetamide] |
| 130 | > 30000 | 1400 | CC(C)(C(=O)N[C@H]1CC[C@H](CC(=O)Nc2cnc(-c3ccc(C4(N)COC4)cc3)c(-c3ccccc3)c2)CC1)C(F)(F)F [Example A6, N-(trans-4-(2-((6-(4-(3-aminooxetan-3-yl)phenyl)-5-phenylpyridin-3-yl)amino)-2-oxoethyl)cyclohexyl)-3,3,3-trifluoro-2,2-dimethylpropanamide] |

The remaining lines, values behind:

| SMILES | IC50 (Akt3) [nM] | IC50 (Akt1) [nM] | IC50 (Akt2) [nM] |
| --- | --- | --- | --- |
| CC(=O)N(C)[C@H]1CC[C@H](CC(=O)Nc2cnc(-c3ccc([C@H](N)C(F)F)cc3)c(-c3ccccc3)c2)CC1 [Example 11, N-(6-(4-((S)-1-amino-2,2-difluoroethyl)phenyl)-5-phenylpyridin-3-yl)-2-(trans-4-(N-methylacetamido)cyclohexyl)acetamide] | 630 | > 30000 | > 20000 |
| CC(=O)N[C@H]1CC[C@H](CC(=O)Nc2cnc(-c3ccc(C4(N)COC4)cc3)c(-c3ccccc3)c2)CC1 [Example 14, 2-(trans-4-acetamidocyclohexyl)-N-(6-(4-(3-aminooxetan-3-yl)phenyl)-5-phenylpyridin-3-yl)acetamide] | 600 | > 30000 | 1300 |
| CC(=O)N[C@H]1CC[C@H](CC(=O)Nc2cnc(-c3ccc([C@]4(N)C[C@@H](O)C4)cc3)c(-c3ccccc3)c2)CC1 [Example 13, 2-(trans-4-acetamidocyclohexyl)-N-(6-(4-(trans-1-amino-3-hydroxycyclobutyl)phenyl)-5-phenylpyridin-3-yl)acetamide] | 220 | – | 480 |
| CC(=O)N(C)[C@H]1CC[C@H](CC(=O)Nc2cnc(-c3ccc([C@@H](C)N)cc3)c(-c3ccccc3)c2)CC1 [Example 8, N-(6-(4-((R)-1-aminoethyl)phenyl)-5-phenylpyridin-3-yl)-2-(trans-4-(N-methylacetamido)cyclohexyl)acetamide] | 51 | 12000 | 710 |
| COC1CCC(CC(=O)Nc2cnc(-c3ccc(C4(N)COC4)cc3)c(-c3ccccc3)c2)CC1 (mixture of isomers) [Example 21, N-(6-(4-(3-aminooxetan-3-yl)phenyl)-5-phenylpyridin-3-yl)-2-(4-methoxycyclohexyl)acetamide] | 210 | > 55000 | 1100 |
| Cc1cscc1-c1cc(NC(=O)C[C@H]2CC[C@H](N(C)S(C)(=O)=O)CC2)cnc1-c1ccc(C2(N)CCC2)cc1 [Example 19, N-(6-(4-(1-aminocyclobutyl)phenyl)-5-(4-methylthiophen-3-yl)pyridin-3-yl)-2-(trans-4-(N-methylmethylsulfonamido)cyclohexyl)acetamide] | 6400 | > 30000 | > 26000 |
| Cc1nncn1[C@H]1CC[C@H](CC(=O)Nc2cnc(-c3ccc(C(C)(C)N)cc3)c(-c3ccccc3)c2)CC1 [Example 23, N-(6-(4-(2-aminopropan-2-yl)phenyl)-5-phenylpyridin-3-yl)-2-(trans-4-(3-methyl-4H-1,2,4-triazol-4-yl)cyclohexyl)acetamide] | 430 | > 30000 | 11000 |
